Key:
LXRβ full length (FL) = target: T1, LXRβ full length (FL) (Homo sapiens, UniProt P55055, DUP175-175); assay: LXR Gal4 reporter transient transfection assay (M2H), Gal4β FL; format: cell-based; settings: HEK293 cells; read-out: M2H Gal4β FL activity range (EC50)
T1 construct: the full length (FL) proteins of LXRα (amino acids 1-447); NP005684; NP009052; expressed in transfected cells; host or cells: HEK293
T1 sequence (P55055 with tags, fused parts or gaps DUP175-175): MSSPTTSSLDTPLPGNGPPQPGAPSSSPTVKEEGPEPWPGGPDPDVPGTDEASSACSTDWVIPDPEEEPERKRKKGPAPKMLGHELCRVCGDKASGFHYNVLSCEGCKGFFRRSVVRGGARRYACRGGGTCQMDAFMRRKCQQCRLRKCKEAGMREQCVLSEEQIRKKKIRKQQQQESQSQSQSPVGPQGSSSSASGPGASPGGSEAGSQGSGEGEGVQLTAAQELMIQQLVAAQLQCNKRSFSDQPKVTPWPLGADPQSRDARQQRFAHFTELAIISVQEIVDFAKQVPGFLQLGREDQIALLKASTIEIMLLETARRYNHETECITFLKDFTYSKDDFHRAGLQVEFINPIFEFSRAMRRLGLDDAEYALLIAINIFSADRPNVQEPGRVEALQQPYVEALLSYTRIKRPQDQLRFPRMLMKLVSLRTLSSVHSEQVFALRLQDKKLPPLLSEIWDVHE
Protocol: (§1) The tested compounds were usually dissolved, tested and stored as 20 mM stock solutions in DMSO. Since sulfonyl acetic acid derivatives tend to decarboxylate under these conditions, these stock solutions were prepared, tested and stored as 20 mM DMSO stock solutions containing 100 mM trifluoroacetic acid (5 equivalents). Sulfonyl acetic acid derivatives are shelf stable as solid at rt for long time as reported by Griesbrecht et al. (Synlett 2010:374) or Faucher et al. (J. Med. Chem. 2004; 47:18).
(§2) LXR Gal4 Reporter Transient Transfection Assays
(§3) LXRα and LXRβ activity status was determined via detection of interaction with coactivator and corepressor proteins in mammalian two-hybrid experiments (M2H). For this, via transient transfection the full length (FL) proteins of LXRα (amino acids 1-447; NP005684; SEQ ID NO:7) or LXRβ-(amino acids 1-461; NP009052; SEQ ID NO:8) or the ligand-binding domains (LBD) of LXRα (amino acids 155-447 SEQ ID NO:3) or LXRβ (amino acids 156-461; SEQ ID NO:4) were expressed from pCMV-AD (Stratagene) as fusions to the transcriptional activation domain of NFkB. As cofactors, domains of either the steroid receptor coactivator 1 (SRC1; amino acids 552-887; SEQ ID NO:5) or of the corepressor NCoR (amino acids 1903-2312 SEQ ID NO:6) were expressed as fusions to the DNA binding domain of the yeast transcription factor GAL4 (from pCMV-BD; Stratagene). Interaction was monitored via activation of a coexpressed Firefly Luciferase Reporter gene under control of a promoter containing repetitive GAL4 response elements (vector pFRLuc; Stratagene). Transfection efficiency was controlled via cotransfection of constitutively active pRL-CMV Renilla reniformis luciferase reporter (Promega). HEK293 cells were grown in minimum essential medium (MEM) with 2 mM L-glutamine and Earle's balanced salt solution supplemented with 8.3% fetal bovine serum, 0.1 mM non-essential amino acids, 1 mM sodium pyruvate, at 37° C. in 5% CO2. 3.5×10^4 cells/well were plated in 96-well cell culture plates in growth medium supplemented with 8.3% fetal bovine serum for 16-20 h to ˜90% confluency. For transfection, medium was taken off and LXR and cofactor expressing plasmids as well as the reporter plasmids are added in 30 μL OPTIMEM/well including polyethylene-imine (PEI) as vehicle. Typical amounts of plasmids transfected/well: pCMV-AD-LXR (5 ng), pCMV-BD-cofactor (5 ng), pFR-Luc (100 ng), pRL-CMV (0.5 ng). Compound stocks were prepared in DMSO, prediluted in MEM to a total volume of 120 μL, and added 4 h after addition of the transfection mixture (final vehicle concentration not exceeding 0.2%). Cells were incubated for additional 16 h, lysed for 10 min in 1× Passive Lysis Buffer (Promega) and Firefly and Renilla luciferase activities were measured sequentially in the same cell extract using buffers containing D-luciferine and coelenterazine, respectively. Measurements of luminescence were done in a BMG-Iuminometer.

[1] = target: T2, GST-LXRβ ligand-binding domain (Homo sapiens, UniProt P55055, DUP175-175); assay: TR-FRETβ activity assay (LXRβ-LBD / NCoA3 coactivator peptide, prestimulated with 24(S)-25-epoxycholesterol); format: biochemical; parameters: key to behavior in FRET assay: ag=agonist; ia=inverse agonist; settings: for EC50: 1 μM 24(S)-25-epoxycholesterol as prestimulating agonist, read-out: FRETβ activity range (EC50); for behavior in FRET assay: agonist or inverse agonist
T2 construct: amino acids 156-461; NP009052; made in house; host or cells: E. coli
T2 sequence (P55055 with tags, fused parts or gaps DUP175-175): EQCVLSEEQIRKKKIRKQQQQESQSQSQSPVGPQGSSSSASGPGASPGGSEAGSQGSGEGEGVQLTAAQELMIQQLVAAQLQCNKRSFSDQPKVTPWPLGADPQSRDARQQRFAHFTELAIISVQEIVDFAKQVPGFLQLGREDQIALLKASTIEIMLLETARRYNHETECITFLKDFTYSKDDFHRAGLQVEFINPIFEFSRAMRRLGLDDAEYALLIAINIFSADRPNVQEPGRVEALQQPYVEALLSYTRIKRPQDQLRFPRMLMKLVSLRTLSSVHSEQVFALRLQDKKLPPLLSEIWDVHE
Protocol: The tested compounds were usually dissolved, tested and stored as 20 mM stock solutions in DMSO. […] Sulfonyl acetic acid derivatives are shelf stable as solid at rt for long time as reported by Griesbrecht et al. (Synlett 2010:374) or Faucher et al. (J. Med. Chem. 2004; 47:18). TR-FRETβ Activity Assay Recombinant GST-LXRβ ligand-binding domain (LBD; amino acids 156-461; NP009052; SEQ ID NO:2) was expressed in E. coli and purified via gluthatione-sepharose affinity chromatography. N-terminally biotinylated NCoA3 coactivator peptide (SEQ ID NO:1) was chemically synthesized (Eurogentec). […] Finally, a detection mix was added containing anti GST-Tb cryptate (CisBio; 610SAXLB) and Streptavidin-XL665 (CisBio; 610SAXLB) as fluorescent donor and acceptor, respectively, as well as the coactivator peptide and LXRβ-LBD protein (SEQ ID NO:2). The reaction was mixed thoroughly, equilibrated for 1 h at 4° C. and vicinity of LXRβ and coactivator peptide was detected by measurement of fluorescence in a VictorX4 multiplate reader (PerkinElmer Life Science) using 340 nm as excitation and 615 and 665 nm as emission wavelengths. Assays were performed in triplicates. Final Assay Concentrations of Components: 240 mM KCl, 1 μg/μL BSA, 0.002% Triton-X-100, […] anti GST-Tb cryptate, 2.5 ng/μL Streptavidin-XL665, coactivator peptide (400 nM), LXRβ protein ([…], i.e. 76 nM)

LXRα full length (FL) = target: T3, LXRα full length (FL) (Homo sapiens, UniProt Q13133); assay: LXR Gal4 reporter transient transfection assay (M2H), Gal4α FL; format: cell-based; settings: HEK293 cells; for EC50: read-out: M2H Gal4α FL activity range (EC50)
T3 construct: the full length (FL) proteins of LXRα (amino acids 1-447); NP005684; expressed in transfected cells; host or cells: HEK293
T3 sequence (Q13133 1-447): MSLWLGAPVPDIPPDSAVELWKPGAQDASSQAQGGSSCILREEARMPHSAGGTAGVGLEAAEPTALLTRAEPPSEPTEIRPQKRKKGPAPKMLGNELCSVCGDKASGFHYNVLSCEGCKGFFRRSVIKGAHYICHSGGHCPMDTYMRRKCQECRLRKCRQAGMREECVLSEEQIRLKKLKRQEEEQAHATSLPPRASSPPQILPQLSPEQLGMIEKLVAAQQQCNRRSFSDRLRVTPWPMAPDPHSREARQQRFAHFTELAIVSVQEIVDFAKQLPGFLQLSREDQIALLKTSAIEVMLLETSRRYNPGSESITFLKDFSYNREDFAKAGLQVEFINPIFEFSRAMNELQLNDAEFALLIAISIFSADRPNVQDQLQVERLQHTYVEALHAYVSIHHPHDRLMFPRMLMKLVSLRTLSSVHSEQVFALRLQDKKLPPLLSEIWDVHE
Protocol: as §1, §2, §3

Row | Structure (SMILES) | EC50 (LXRβ full length (FL)) [µM] | EC50 [1] [µM] | behavior in FRET assay [1] | EC50 (LXRα full length (FL)) [µM] | M2H Gal4α FL activity range (EC50) (LXRα full length (FL))
1 | Cc1ccc2ccccc2c1S(=O)(=O)N(Cc1ccc(C(F)(F)F)o1)C1COc2cc(-c3cccc(C(C)(C)C(=O)O)c3)ccc21 (stereo not shown) [10/14] | < 0.1 | 0.1 to 1 | ia | < 0.1 | 
2 | Cc1ccc2ccccc2c1[S+]([O-])N(Cc1ccc(-c2cccc(C(C)(C)C(=O)O)c2)cc1)Cc1ccc(C(F)(F)F)o1 (stereo not shown) [Example 27, 2-Methyl-2-(4′-((((2-methylnaphthalen-1-yl)sulfinyl)((5-(trifluoromethyl)furan-2-yl)methyl)amino)methyl)-[1,1′-biphenyl]-3-yl)propanoic acid] | < 0.1 | 0.1 to 1 | ia | < 0.1 | 
3 | Cc1ccc2ncccc2c1S(=O)(=O)N(Cc1ccc(-c2cccc(C(C)(C)C(=O)O)c2)cc1)Cc1ccc(C(F)(F)F)o1 [10/15] | < 0.1 | < 0.1 | ia | < 0.1 | 
4 | Cc1cc(C)c(S(=O)(=O)N(Cc2ccc(C(F)(F)F)o2)Cc2sc(-c3cccc(C(C)(C)C(=O)O)c3)cc2Cl)c(C)c1 [10/6] | < 0.1 | 1 to 10 | ag | 0.1 to 1 | 
5 | Cc1ccc2ccccc2c1S(=O)(=O)N(Cc1ccc(-c2cccc(C(C)(C)C(=O)O)c2)cc1)Cc1cc2ccccc2o1 [10/17] | < 0.1 | 1 to 10 | ia | 0.1 to 1 | 
6 | COc1ccc(S(=O)(=O)N(Cc2ccc(-c3cccc(S(=O)(=O)CC(=O)O)c3)cc2)Cc2ccc(C(F)(F)F)o2)c2c1CCCC2 [10/10] | 0.1 to 1 | 1 to 10 | ia | 0.1 to 1 | 
7 | COc1cccc(CN(Cc2ccc(-c3cccc(S(=O)(=O)CC(=O)O)c3)cc2)S(=O)(=O)c2c(C)cc(C)cc2C)c1 [11/3] | 1 to 10 | > 10 | ia | 1 to 10 | 
8 | Cc1ccc2cccnc2c1S(=O)(=O)N(Cc1ccc(-c2cccc(C(C)(C)C(=O)NO)c2)cc1)Cc1ccc(C(F)(F)F)o1 [Example 30, N-Hydroxy-2-methyl-2-(4′-(((7-methyl-N-((5-(trifluoromethyl)furan-2-yl)methyl)quinoline)-8-sulfonamido)methyl)-[1,1′-biphenyl]-3-yl)propanamide] | < 0.1 | 0.1 to 1 | ag | < 0.1 | 
9 | Cc1cc(F)c(S(=O)(=O)N(Cc2ccc(-c3cccc(S(=O)(=O)CC(=O)O)c3)cc2)Cc2ccc(C(F)(F)F)o2)c(F)c1 [Example 14/1] | 1 to 10 | 1 to 10 | ag |  | inactive
10 | Cc1cc(C)c(S(=O)(=O)N(CCc2ccc(C(F)(F)F)o2)Cc2ccc(-c3cccc(S(=O)(=O)CC(=O)O)c3)cc2)c(C)c1 [Example 17/1] | 1 to 10 | 1 to 10 | ia | 1 to 10 | 
11 | O=C(O)CS(=O)(=O)c1cccc(-c2ccc(CN(Cc3ccc(C(F)(F)F)o3)S(=O)(=O)c3c(Cl)cccc3Cl)cc2)c1 [Example 10/1] | 0.1 to 1 | 1 to 10 | ag |  | inactive
12 | Cc1cc(C)c(S(=O)(=O)N(Cc2ccc(-c3cccc(S(=O)(=O)CC(=O)O)c3)cc2)Cc2ccc(C)o2)c(C)c1 [5/5] | 0.1 to 1 | > 10 | ia | 1 to 10 | 
13 | Cc1ccc2cccnc2c1S(=O)(=O)N(Cc1ccc(-c2cccc(S(=O)(=O)CC(=O)O)c2)cc1)Cc1ccc(C(F)(F)F)o1 [10/11] | 0.1 to 1 | 1 to 10 | ag | 1 to 10 | 
14 | Cc1cc(C)c(S(=O)(=O)N(Cc2ccc(-c3cccc(S(=O)(=O)CC(=O)O)c3)cc2)Cc2cccc(OC(F)F)c2)c(C)c1 [11/15] | 0.1 to 1 | 1 to 10 | ia | 1 to 10 | 
15 | Cc1nn2cccnc2c1S(=O)(=O)N(Cc1ccc(-c2cccc(C(C)(C)C(=O)O)c2)cc1)Cc1ccc(C(F)(F)F)o1 [10/20] | < 0.1 | 0.1 to 1 | ag | 0.1 to 1 | 
16 | Cc1sc2ccccc2c1S(=O)(=O)N(Cc1ccc(-c2cccc(C(C)(C)C(=O)O)c2)cc1)Cc1ccc(C(F)(F)F)o1 [10/18] | < 0.1 | < 0.1 | ia | < 0.1 | 
